# Tests used:
# [1] = test system: salmon lice (Lepeophtheirus salmonis); details: Example 3: 1500 ppm hydrogen peroxide in 500 m^3 sea water, added in about 4.5 min, treatment continued 22.5 min, then flushed; infested Atlantic salmons
# [2] = test system: Atlantic salmons; details: Example 3: 1500 ppm hydrogen peroxide in 500 m^3 sea water, added in about 4.5 min via eductor nozzle agitation system, treatment continued 22.5 min
# Description: The treatment was continued for 22.5 minutes then the treated water was flushed away and replaced by fresh seawater.
# In Example 3, the body of water comprised additionally Atlantic salmons as living organisms, said salmons being infested with external parasites, i.e. salmon lice (Lepeophtheirus salmonis). The purpose of the test was to remove these parasites from the fish.
structure (smiles),measurement,setting,value
OO [hydrogen peroxide],removal of salmon lice from the treated fish,[1],effective in removing the salmon lice
same,injury to the fish,[2],without injuring the fish
